pIC50: −log10 of the molar value. Values after ≈ are worked out from the molar mass of the structure shown. Active and inactive are the calls of the source. No cut-off for these calls is given here.
Key:
[1] = Metabolic stability in dog liver microsomes assessed as intrinsic clearance at 1 uM by LC-MS/MS analysis; format: ADME, Canis lupus familiaris, Microsome; conditions: read-out: CLH
[2] = Metabolic stability in human liver microsomes assessed as intrinsic clearance at 1 uM by LC-MS/MS analysis; format: ADME, Microsome; conditions: read-out: CLH
[3] = Protein binding in dog plasma assessed as unbound fraction by LC-MS/MS based equilibrium dialysis method; format: ADME, cell-free, Canis lupus familiaris
[4] = test system: BaF3; assay: cells; conditions: Mus musculus
Description: Cytotoxicity against mouse BaF3 cells transfected with TrKA assessed as reduction in cell viability by MTT assay

[5] = biological target: Cytochrome P450 3A4 (Homo sapiens, UniProt P08684); assay: Inhibition of CYP3A4 in human pooled liver microsomes using midazolam and testosterone as substrate in presence of NADPH by LC-MS/MS analysis; format: ADME
Chain of Cytochrome P450 3A4 (P08684 whole entry): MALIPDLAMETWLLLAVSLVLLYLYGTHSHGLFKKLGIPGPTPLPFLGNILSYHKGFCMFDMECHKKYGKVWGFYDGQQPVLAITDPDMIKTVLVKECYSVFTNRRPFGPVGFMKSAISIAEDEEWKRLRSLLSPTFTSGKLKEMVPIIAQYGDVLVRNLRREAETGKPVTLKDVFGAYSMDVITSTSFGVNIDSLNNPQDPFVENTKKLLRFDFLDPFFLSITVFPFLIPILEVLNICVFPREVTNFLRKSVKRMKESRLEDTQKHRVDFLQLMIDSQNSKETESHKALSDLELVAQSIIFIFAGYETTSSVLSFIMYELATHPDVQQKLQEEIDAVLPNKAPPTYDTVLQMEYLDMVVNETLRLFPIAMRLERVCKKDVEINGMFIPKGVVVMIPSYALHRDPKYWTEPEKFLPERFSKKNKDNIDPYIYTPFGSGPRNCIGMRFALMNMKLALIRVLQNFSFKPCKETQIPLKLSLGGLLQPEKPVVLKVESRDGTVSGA

[6] = Toxicity in […] xenografted with mouse BaF3 cells transfected with ETV6-NTRK3 assessed as death at 100 mg/kg, po administered once daily for 21 days and measured twice weekly; format: organism-based; conditions: in vivo, 504 h, time 21 day
[7] = biological target: Cytochrome P450 2D6 (Homo sapiens, UniProt P10635); assay: Inhibition of CYP2D6 in human pooled liver microsomes using dextromethorphan as substrate in presence of NADPH by LC-MS/MS analysis; format: ADME
Chain of Cytochrome P450 2D6 (P10635 whole entry): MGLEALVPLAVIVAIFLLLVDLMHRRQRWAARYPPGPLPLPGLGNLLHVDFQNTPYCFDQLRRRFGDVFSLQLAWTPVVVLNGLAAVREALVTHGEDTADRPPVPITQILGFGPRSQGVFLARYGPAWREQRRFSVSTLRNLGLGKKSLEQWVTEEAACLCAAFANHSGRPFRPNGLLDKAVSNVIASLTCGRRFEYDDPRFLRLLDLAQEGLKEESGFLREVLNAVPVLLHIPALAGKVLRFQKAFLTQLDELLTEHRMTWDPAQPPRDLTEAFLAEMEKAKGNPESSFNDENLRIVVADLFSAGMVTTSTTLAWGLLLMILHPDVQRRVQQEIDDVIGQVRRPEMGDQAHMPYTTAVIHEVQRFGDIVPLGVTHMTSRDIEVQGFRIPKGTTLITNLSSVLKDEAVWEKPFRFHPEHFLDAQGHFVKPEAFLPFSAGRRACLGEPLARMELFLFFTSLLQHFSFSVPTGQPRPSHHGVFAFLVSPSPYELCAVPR

[8] = Metabolic stability in rat liver microsomes assessed as intrinsic clearance at 1 uM by LC-MS/MS analysis; format: ADME, Microsome; conditions: read-out: CLH
[9] = biological target: Cytochrome P450 2C19 (Homo sapiens, UniProt P33261); assay: Inhibition of CYP2C19 in human pooled liver microsomes using S-mephenytoin as substrate in presence of NADPH by LC-MS/MS analysis; format: ADME
Chain of Cytochrome P450 2C19 (P33261 whole entry): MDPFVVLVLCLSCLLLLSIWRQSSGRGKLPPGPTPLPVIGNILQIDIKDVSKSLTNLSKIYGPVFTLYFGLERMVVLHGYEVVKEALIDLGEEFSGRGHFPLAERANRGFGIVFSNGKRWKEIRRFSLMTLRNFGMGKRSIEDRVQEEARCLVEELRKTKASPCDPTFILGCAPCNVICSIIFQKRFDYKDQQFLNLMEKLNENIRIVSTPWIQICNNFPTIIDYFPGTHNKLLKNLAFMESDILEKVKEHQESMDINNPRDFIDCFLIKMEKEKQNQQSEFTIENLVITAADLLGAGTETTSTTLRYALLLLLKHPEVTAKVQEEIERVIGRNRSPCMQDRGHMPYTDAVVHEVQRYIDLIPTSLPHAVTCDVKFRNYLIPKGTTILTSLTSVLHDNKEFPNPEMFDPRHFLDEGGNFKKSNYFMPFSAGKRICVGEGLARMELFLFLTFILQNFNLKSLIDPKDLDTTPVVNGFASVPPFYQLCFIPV

[10] = test system: BaF3; assay: Cytotoxicity against mouse BaF3 cells transfected with TrKA F589L mutant assessed as reduction in cell viability by MTT assay; format: functional, cell-based
[11] = test system: BaF3; assay: Cytotoxicity against mouse BaF3 cells transfected with TrKA G623R mutant assessed as reduction in cell viability by MTT assay; format: functional, cell-based
[12] = test system: BaF3; assay: Cytotoxicity against mouse BaF3 cells transfected with TrKA G667A mutant assessed as reduction in cell viability by MTT assay; format: functional, cell-based
[13] = test system: BaF3; assay: Cytotoxicity against mouse BaF3 cells transfected with SLC34A2-Ros1 assessed as reduction in cell viability by MTT assay; format: functional, cell-based
[14] = test system: BaF3; assay: Cytotoxicity against mouse BaF3 cells transfected with TrKA G595R mutant assessed as reduction in cell viability by MTT assay; format: functional, cell-based
[15] = test system: BaF3; assay: Antitumor activity against mouse BaF3 cells transfected with ETV6-NTRK3 cells xenografted in mouse assessed as tumor growth inhibition at 100 mg/kg, po administered once daily for 21 days and measured twice weekly; conditions: time 21.0 day
[16] = Protein binding in mouse plasma assessed as unbound fraction by LC-MS/MS based equilibrium dialysis method; format: ADME, cell-free
[17] = biological target: Cytochrome P450 2C9 (Homo sapiens, UniProt P11712); assay: Inhibition of CYP2C9 in human pooled liver microsomes using diclofenac as substrate in presence of NADPH by LC-MS/MS analysis; format: ADME
Chain of Cytochrome P450 2C9 (P11712 whole entry): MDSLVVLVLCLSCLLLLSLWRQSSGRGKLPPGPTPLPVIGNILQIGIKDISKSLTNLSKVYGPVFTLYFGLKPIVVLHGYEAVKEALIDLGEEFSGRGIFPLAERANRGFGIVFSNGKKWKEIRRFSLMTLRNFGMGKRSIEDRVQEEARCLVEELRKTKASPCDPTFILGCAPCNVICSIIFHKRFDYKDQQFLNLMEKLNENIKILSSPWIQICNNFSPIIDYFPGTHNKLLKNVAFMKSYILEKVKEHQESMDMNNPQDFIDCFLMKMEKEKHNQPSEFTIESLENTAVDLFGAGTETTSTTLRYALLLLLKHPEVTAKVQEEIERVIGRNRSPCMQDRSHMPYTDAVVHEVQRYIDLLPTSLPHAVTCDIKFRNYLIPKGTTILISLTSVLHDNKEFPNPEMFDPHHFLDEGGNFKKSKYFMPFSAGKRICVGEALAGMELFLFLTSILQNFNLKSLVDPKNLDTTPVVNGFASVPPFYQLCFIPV

[18] = Protein binding in rat plasma assessed as unbound fraction by LC-MS/MS based equilibrium dialysis method; format: ADME, cell-free
[19] = Metabolic stability in mouse liver microsomes assessed as intrinsic clearance at 1 uM by LC-MS/MS analysis; format: ADME, Microsome; conditions: read-out: CLH
[20] = AUC (0 to t) in Sprague-Dawley rat at 10 mg/kg, po measured up to 24 hrs by LC-MS/MS analysis; format: ADME, organism-based; parameters: route oral, dose 10 mg/kg, time <=24; conditions: in vivo
[21] = Apparent permeability across apical to basolateral side in human Caco-2 cells incubated for 2 hrs by LC-MS/MS analysis; format: ADME, cell-based
[22] = biological target: T1, Cytochrome P450 1A2 (Homo sapiens, UniProt P05177); assay: Inhibition of CYP1A2 in human pooled liver microsomes using phenacetin as substrate in presence of NADPH by LC-MS/MS analysis; format: ADME
T1 sequence (P05177 whole entry): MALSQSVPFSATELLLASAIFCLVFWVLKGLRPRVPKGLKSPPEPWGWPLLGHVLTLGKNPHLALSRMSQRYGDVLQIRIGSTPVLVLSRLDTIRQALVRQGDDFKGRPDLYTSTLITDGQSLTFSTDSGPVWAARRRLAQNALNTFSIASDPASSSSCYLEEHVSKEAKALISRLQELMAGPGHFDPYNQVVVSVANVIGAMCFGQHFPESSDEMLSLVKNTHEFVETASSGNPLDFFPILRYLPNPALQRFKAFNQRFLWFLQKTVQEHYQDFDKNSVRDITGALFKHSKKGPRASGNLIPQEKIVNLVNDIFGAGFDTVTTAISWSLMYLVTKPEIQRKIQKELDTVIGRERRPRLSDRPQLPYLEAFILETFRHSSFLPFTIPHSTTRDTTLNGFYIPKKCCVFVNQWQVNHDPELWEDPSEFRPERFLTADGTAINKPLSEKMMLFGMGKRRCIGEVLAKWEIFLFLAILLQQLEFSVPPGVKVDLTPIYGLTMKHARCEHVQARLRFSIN

[23] = Protein binding in human plasma assessed as unbound fraction by LC-MS/MS based equilibrium dialysis method; format: ADME, cell-free
[24] = test system: BaF3; assay: Antitumor activity against mouse BaF3 cells transfected with LMNA-NTRK1-G595R mutant xenografted in mouse assessed as tumor growth inhibition at 5 to 20 mg/kg, po administered once daily for 21 days and measured twice weekly; conditions: dose 5-20 mg/kg, time 21.0 day
[25] = biological target: Tyrosine-protein kinase JAK2 (Homo sapiens) (UniProt O60674); assay: Inhibition of human JAK2 (808 to end residues) assessed as residual activity at 0.5 uM using KTFCGTPEYLAPEVRREPRILSEEEQEMFRDFDYIADWC as substrate after 40 mins by [gamma-33ATP] radiometric assay relative to control
Chain of Tyrosine-protein kinase JAK2 (Homo sapiens) (O60674 whole entry): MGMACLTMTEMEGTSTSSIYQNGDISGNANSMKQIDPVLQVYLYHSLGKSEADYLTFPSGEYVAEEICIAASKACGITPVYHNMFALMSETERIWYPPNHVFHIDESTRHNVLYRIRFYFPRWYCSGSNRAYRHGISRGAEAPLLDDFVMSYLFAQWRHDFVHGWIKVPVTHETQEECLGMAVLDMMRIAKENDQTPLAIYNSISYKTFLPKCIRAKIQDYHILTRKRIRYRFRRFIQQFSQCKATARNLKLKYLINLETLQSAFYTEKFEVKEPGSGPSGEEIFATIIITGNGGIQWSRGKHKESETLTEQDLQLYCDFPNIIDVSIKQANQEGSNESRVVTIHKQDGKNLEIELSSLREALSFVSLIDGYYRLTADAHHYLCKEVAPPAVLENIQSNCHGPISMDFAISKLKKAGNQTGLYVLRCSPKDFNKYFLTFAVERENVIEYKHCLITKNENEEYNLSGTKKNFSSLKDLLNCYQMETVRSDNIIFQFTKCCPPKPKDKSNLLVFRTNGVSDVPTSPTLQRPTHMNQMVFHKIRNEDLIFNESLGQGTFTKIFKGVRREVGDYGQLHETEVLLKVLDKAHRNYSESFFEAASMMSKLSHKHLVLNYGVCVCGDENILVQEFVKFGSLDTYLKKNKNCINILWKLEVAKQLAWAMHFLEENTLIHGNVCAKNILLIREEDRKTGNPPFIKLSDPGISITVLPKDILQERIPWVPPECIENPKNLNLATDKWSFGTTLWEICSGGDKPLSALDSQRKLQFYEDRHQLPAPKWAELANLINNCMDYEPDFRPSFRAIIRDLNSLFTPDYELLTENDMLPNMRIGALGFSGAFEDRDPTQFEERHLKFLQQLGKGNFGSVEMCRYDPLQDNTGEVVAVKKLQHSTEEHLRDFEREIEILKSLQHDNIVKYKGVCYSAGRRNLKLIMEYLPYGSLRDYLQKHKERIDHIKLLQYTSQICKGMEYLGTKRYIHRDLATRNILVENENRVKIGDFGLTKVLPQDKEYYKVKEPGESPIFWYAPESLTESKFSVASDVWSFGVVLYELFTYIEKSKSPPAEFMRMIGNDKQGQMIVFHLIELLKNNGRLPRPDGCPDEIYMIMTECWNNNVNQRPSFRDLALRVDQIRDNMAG

[26] = Toxicity in […] xenografted with mouse BaF3 cells transfected with ETV6-NTRK3 assessed as weight loss at 20 mg/kg, po administered once daily for 21 days and measured twice weekly; format: organism-based; conditions: in vivo, 504 h, time 21 day
[27] = biological target: High affinity nerve growth factor receptor (Homo sapiens, UniProt P04629); assay: Inhibition of human TrkA (440 to end residues) assessed as residual activity at 0.5 uM using KKKSPGEYVNIEFG as substrate measured after 40 mins in presence of [gamma33P]ATP by scintillation counting method relative to control
Chain of High affinity nerve growth factor receptor (P04629 33-796 limits assumed): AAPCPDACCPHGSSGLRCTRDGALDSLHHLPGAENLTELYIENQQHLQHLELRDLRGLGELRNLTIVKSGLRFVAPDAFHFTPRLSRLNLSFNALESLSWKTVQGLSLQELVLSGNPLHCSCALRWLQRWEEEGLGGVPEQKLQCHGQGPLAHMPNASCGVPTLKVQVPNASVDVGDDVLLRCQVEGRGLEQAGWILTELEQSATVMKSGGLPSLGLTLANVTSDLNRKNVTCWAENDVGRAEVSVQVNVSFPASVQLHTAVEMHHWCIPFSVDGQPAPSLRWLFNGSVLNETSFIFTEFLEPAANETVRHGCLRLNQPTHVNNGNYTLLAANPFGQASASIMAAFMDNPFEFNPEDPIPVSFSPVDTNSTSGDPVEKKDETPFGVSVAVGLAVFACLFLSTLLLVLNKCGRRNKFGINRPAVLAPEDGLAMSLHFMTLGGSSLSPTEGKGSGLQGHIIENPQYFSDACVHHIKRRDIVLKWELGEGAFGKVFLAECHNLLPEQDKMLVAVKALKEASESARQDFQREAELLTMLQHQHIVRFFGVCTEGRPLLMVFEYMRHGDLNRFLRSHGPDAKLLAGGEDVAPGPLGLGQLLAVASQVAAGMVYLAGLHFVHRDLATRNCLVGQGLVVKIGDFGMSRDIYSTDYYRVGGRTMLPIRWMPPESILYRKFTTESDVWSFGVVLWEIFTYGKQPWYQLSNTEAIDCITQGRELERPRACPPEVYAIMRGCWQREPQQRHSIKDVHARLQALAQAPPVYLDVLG

[28] = Kinetic solubility of the compound; format: physicochemical; conditions: read-out: Kinetic_solubility
[29] = biological target: NT-3 growth factor receptor (Homo sapiens, UniProt Q16288); assay: Inhibition of human TrkC (510 to end residues) assessed as residual activity at 0.5 uM using GEEPLYWSFPAKKK as substrate measured after 40 mins in presence of [gamma33P]ATP by scintillation counting method relative to control
[30] = biological target: Voltage-gated inwardly rectifying potassium channel KCNH2 (Homo sapiens, UniProt Q12809); assay: Inhibition of human ERG
Chain of Voltage-gated inwardly rectifying potassium channel KCNH2 (Q12809 whole entry): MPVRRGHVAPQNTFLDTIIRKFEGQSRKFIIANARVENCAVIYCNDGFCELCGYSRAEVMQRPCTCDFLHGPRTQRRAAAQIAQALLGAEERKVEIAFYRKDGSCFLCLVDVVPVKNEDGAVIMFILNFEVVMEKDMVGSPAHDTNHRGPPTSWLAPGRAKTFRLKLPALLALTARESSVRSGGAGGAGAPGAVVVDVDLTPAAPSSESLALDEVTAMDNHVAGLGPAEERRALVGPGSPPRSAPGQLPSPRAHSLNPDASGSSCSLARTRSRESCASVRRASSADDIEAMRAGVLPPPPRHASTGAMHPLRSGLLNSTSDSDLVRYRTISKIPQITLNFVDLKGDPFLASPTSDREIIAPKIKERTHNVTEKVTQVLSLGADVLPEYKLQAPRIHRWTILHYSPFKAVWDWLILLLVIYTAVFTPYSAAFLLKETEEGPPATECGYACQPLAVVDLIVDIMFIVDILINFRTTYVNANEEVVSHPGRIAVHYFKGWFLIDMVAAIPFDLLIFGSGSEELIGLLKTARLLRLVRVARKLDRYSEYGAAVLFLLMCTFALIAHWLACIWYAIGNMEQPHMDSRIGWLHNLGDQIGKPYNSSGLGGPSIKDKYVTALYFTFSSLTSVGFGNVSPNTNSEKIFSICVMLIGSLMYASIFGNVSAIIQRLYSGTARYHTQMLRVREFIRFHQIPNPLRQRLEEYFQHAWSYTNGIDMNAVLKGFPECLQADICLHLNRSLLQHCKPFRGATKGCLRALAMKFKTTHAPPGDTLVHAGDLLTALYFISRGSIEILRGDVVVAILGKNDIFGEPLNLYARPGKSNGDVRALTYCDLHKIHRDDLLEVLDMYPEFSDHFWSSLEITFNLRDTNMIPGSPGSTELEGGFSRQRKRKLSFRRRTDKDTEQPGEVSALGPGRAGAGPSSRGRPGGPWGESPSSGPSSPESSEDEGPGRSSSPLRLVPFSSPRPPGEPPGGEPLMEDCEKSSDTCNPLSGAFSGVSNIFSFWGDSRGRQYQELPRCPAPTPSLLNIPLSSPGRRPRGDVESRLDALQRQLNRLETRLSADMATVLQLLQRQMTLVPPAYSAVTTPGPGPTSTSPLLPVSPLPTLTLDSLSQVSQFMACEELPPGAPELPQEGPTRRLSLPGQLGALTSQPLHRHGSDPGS

[31] = test system: BaF3; assay: Antitumor activity against mouse BaF3 cells transfected with ETV6-NTRK3-G623R mutant xenografted in mouse assessed as tumor growth inhibition at 5 to 20 mg/kg, po administered once daily for 21 days and measured twice weekly; conditions: dose 5-20 mg/kg, time 21.0 day

Row | Compound | CLint scaled at 1 µM [1] | CLint scaled at 1 µM [2] | fraction unbound [3] | pIC50 [4] | pIC50 [5] | pIC50 [7] | CLint scaled at 1 µM [8] | pIC50 [9] | pIC50 [10] | pIC50 [11] | pIC50 [12] | pIC50 [13] | pIC50 [14] | fraction unbound [16] | pIC50 [17] | fraction unbound [18] | CLint scaled at 1 µM [19] | Papp A→B at 2 h [21] | pIC50 [22] | fraction unbound [23] | further results
1 | C[C@@H]1CCc2ncc(F)cc2[C@H]2CCCN2c2ccn3ncc(c3n2)C(=O)N1 [SELITRECTINIB] | 38 mL/min/kg | 76 mL/min/kg | 0.2 | 8.31 | < 4.30 | < 4.30 | 92 mL/min/kg | < 4.30 | 7.60 | 8.57 | 7.61 | 7.44 | 8.17 | 0.02 | < 4.30 | 0.03 | 1350 mL/min/kg | 8.4 ×10⁻⁶ cm/s | < 4.30 | 0.34 | Activity [6]: Toxic; Activity [15]: Active; AUC(0-t) at 24 h [20]: 27.3 µM·h
2 | O=C1NC2(CC2)COc2ncc(F)cc2[C@H]2COCCN2c2ccn3ncc1c3n2 | < 10.7 mL/min/kg | 17.7 mL/min/kg | 0.21 | 9.22 | < 4.30 | < 4.00 | 28.8 mL/min/kg | 4.05 | 8.31 | 8.57 | 9.10 | 8.64 | 8.11 | 0.11 | 4.74 | 0.12 | 1500 mL/min/kg | 12 ×10⁻⁶ cm/s | < 4.00 | 0.16 | Activity [24]: Active; Activity [25]: 44%; Activity [26]: Toxic; Activity [27]: 2%; solubility kinetic [28]: 193 µM (≈ 79.2 µg/mL); Activity [29]: -3%; pIC50 [30]: 4.89; Activity [31]: Active
